Results on two molecules are retold here after patent publication US20240139280A1, “USE OF HIF-1-ALPHA INHIBITORS IN CANCER IMMUNOTHERAPY” (ONCOC4, INC., priority 2021, published 2024).

Series [1] has as its system PD-L1 expression in E0771 cells. In kind it is cell-based, murine.
Series [2] concerns core HRE motif EGFP reporter in 4T1-HRE-EGFP cells. It counts as cell-based, murine.
Series [3] has as its system intestinal tissues. The settings on record: in vivo.
Method: (§1) Experimental design for GI-irAE induction by Ipilimumab, with or without additional therapies. 10-day old CTLA4h/h mice received 0.1 mg of Ipilimumab on days 10, 13, 16, and 19 after birth to induce the GI-irAE phenotype, measured by FITC-dextran assay on day 32. On day 33, the mice were sacrificed for histological and immunofluorescent analysis of intestinal tissues, and flow cytometry, etc. […] Aggregate data from 4 experiments are presented. […] Starting on day 10 after birth, the mice began receiving treatment with vehicle (n=33), echinomycin (n=27), Ipilimumab (n=33), Ipilimumab+echinomycin (n=26), Ipilimumab+RMP1-14 (n=27), Ipilimumab+echinomycin+RMP1-14 (n=28), or Ipilimumab+echinomycin+XMG1.2 (n=15). Echinomycin (10 μg/kg), Ipilimumab (0.1 mg/mouse/injection), RMP1-14 (0.2 mg/mouse/injection), and XMG1.2 (0.2 mg/mouse/injection). Vehicle or echinomycin (10 μg/kg) were given once every three days for 8 doses, and mAbs (0.1 mg/mo. for Ipilimumab; 0.2 mg/mo. for RMP1-14 and XMG1.2) once every three days for 4 doses. Data collection was performed as described in (FIG. 8A). […] Serum FITC-dextran intensity shown as mean±SEM for individual mice pooled from 3 independent experiments. […] Statistics were determined by unpaired t tests (two-tailed) for group means. […] Representative H&E images from intestines of Ipilimumab-treated mice additionally treated with echinomycin (panel i), RMP1-14 (panels ii-iv), echinomycin+RMP1-14 (panels v-vi), or echinomycin+XMG1.2 (panels vii-viii). […] Representative immunofluorescence images showing relative expression of PD-L1 in jejunum of mice from different treatment groups.
(§2) Therefore, we used intestinal permeability to orally administrated FITC-dextran and histology as the readout for irAE (FIG. 8A).
For series [4], the system named is intestinal tissues. The series can be described thus: Ipilimumab-induced GI-irAE in human CTLA4 knockin mice (FITC-dextran, histology, PD-L1). The settings on record: Ipilimumab 0.1 mg/mouse/injection; echinomycin 10 μg/kg added to Ipilimumab.
Method: as §1, §2

Take `[Cl-].[Cl-].[Co+2]` [CoCl2]: the PD-L1 expression result in series [1] is recorded as “further upregulated PD-L1”. The “EGFP reporter fluorescence activity” value in series [2] is on record as “marked increase in EGFP reporter fluorescence activity”.

Take “Ipilimumab: Recombinant anti-CTLA-4 antibody Ipilimumab provided by Lakepharma Inc.”: the “intestinal inflammation / pathology (histological analysis)” value in series [3] is recorded as “induced intestinal inflammation”. For the same molecule, the “PD-L1 expression in the intestines” value in series [4] is “elevated PD-L1 expression”.
